Experimental data as given in ChEMBL document CHEMBL4680272 (Eur J Med Chem, 2020).
Activity calls are given as the source filed them. The rule behind the calls is not given here.

Assays:
[1] = system: Influenza A virus (A/Anhui/1/2005(H5N1)); assay: Inhibition of Influenza A virus (A/Anhui/1/2005(H5N1) Neuraminidase using MUNANA as substrate at 10 uM preincubated for 5 to 15 mins followed by substrate addition and measured after 30 mins by fluorescence spectrophotometric method; conditions: time 35-45 min
[2] = system: Influenza A virus (A/Anhui/1/2005(H5N1)); assay: Inhibition of Influenza A virus (A/Anhui/1/2005(H5N1) Neuraminidase using MUNANA as substrate at 100 uM preincubated for 5 to 15 mins followed by substrate addition and measured after 30 mins by fluorescence spectrophotometric method; conditions: time 35-45 min
[3] = Oral bioavailability in ferret; format: ADME, organism-based, Mustela putorius furo; conditions: in vivo
[4] = Oral bioavailability in rat; format: ADME, organism-based; conditions: in vivo
in vitro [5] = conditions: mouse, liver microsomes
in vitro [6] = conditions: rat, liver microsomes
in vitro [7] = conditions: human, liver microsomes
in vitro [8] = conditions: human, plasma
in vitro [9] = conditions: human, liver microsomes; remark: listed apart in the source
[10] = human, plasma
[11] = human, plasma, 2 h
[12] = Oral bioavailability in Sprague-Dawley rat at 50 mg/kg measured for 24 hrs by LC-MS/MS analysis; format: ADME, organism-based; conditions: in vivo
in vivo = conditions: Sprague-Dawley, rat, iv, 10 mg/kg
[13] = AUC in Sprague-Dawley rat at 50 mg/kg, po measured for 24 hrs by LC-MS/MS analysis; format: ADME, organism-based; set-up: time 24 hrs, dose 50 mg/kg; conditions: in vivo
[14] = Bioavailability in Sprague-Dawley rat at 10 mg/kg, iv measured for 24 hrs by LC-MS/MS analysis; format: ADME, organism-based; conditions: in vivo
[15] = AUC in Sprague-Dawley rat at 10 mg/kg, iv measured for 24 hrs by LC-MS/MS analysis; format: ADME, organism-based; set-up: dose 10 mg/kg, time 24 hrs; conditions: in vivo
[16] = Tmax in Sprague-Dawley rat at 50 mg/kg, po by LC-MS/MS analysis; format: ADME, organism-based; conditions: in vivo
[17] = Inhibition of Influenza A virus (A/Babol/36/2005 (H3N2)) Neuraminidase using MUNANA as substrate preincubated for 5 to 15 mins followed by substrate addition and measured after 30 mins by fluorescence spectrophotometric method
in vitro [18] = conditions: human, plasma; remark: listed apart in the source
[19] = Inhibition of Influenza A virus (A/California/04/2009 (H1N1)) Neuraminidase using MUNANA as substrate preincubated for 5 to 15 mins followed by substrate addition and measured after 30 mins by fluorescence spectrophotometric method
[20] = Cmax in Sprague-Dawley rat at 50 mg/kg, po measured for 24 hrs by LC-MS/MS analysis; format: ADME, organism-based; set-up: route oral, dose 50 mg/kg, time 24 hrs; conditions: in vivo
in vitro [21] = conditions: rat, liver microsomes; remark: listed apart in the source
[22] = Half life in Sprague-Dawley rat at 50 mg/kg, po measured for 24 hrs by LC-MS/MS analysis; format: ADME, organism-based; conditions: in vivo
in vitro [23] = conditions: mouse, liver microsomes; remark: listed apart in the source
[24] = Inhibition of Influenza A virus (A/Anhui/1/2005(H5N1) Neuraminidase using MUNANA as substrate preincubated for 5 to 15 mins followed by substrate addition and measured after 30 mins by fluorescence spectrophotometric method
in vitro [25] = conditions: human, plasma; remark: listed apart in the source
[26] = Tmax in Sprague-Dawley rat at 10 mg/kg, po by LC-MS/MS analysis; format: ADME, organism-based; conditions: in vivo
[27] = Cmax in Sprague-Dawley rat at 10 mg/kg, po measured for 24 hrs by LC-MS/MS analysis; format: ADME, organism-based; set-up: route oral, dose 10 mg/kg, time 24 hrs; conditions: in vivo
[28] = AUC in Sprague-Dawley rat at 10 mg/kg, po measured for 24 hrs by LC-MS/MS analysis; format: ADME, organism-based; set-up: time 24 hrs, dose 10 mg/kg; conditions: in vivo

CCC(CC)O[C@@H]1C=C(C(=O)O)C[C@H](NC(=S)NCc2ccc(F)cc2)[C@H]1NC(C)=O
inhibition [1]: inactive
inhibition [2]: 21%

CCC(CC)O[C@@H]1C=C(C(=O)O)C[C@H](NC(=O)NCc2ccccc2)[C@H]1NC(C)=O
inhibition [1]: 6.8%
inhibition [2]: 35.1%

CCC(CC)O[C@@H]1C=C(C(=O)O)C[C@H](NC(N)=S)[C@H]1NC(C)=O
inhibition [1]: 16.9%
inhibition [2]: 51.3%

CCC(CC)[C@H](NC(C)=O)[C@@H]1[C@H](O)[C@@H](C(=O)O)C[C@H]1NC(=N)N [PERAMIVIR ANHYDROUS]
bioavailability [3]: 2.5%

CCC(CC)O[C@@H]1C=C(C(=O)O)C[C@H](NC(=S)NCc2ccc(Br)cc2)[C@H]1NC(C)=O
inhibition [1]: 17%
inhibition [2]: 59.6%

CCC(CC)O[C@@H]1C=C(C(=O)O)C[C@H](NC(=O)NCc2ccc(OC)cc2)[C@H]1NC(C)=O
inhibition [1]: inactive
inhibition [2]: 36.5%

CCC(CC)O[C@@H]1C=C(C(=O)O)C[C@H](NC(=N)N)[C@H]1NC(C)=O
bioavailability [4]: 2.1%

CCC(CC)O[C@@H]1C=C(C(=O)O)C[C@H](NC(=O)Nc2cccc([N+](=O)[O-])c2)[C@H]1NC(C)=O
inhibition [1]: 6.5%
inhibition [2]: 36.9%

O=C(O)Cc1ccccc1Nc1c(Cl)cccc1Cl [DICLOFENAC]
half-life at 1 h (in vitro [5]): 0.735 h
half-life at 1 h (in vitro [6]): 0.2 h
half-life at 1 h (in vitro [7]): 0.195 h

CCC(CC)O[C@@H]1C=C(C(=O)O)C[C@H](NC(=O)N2CCCCC2)[C@H]1NC(C)=O
inhibition [1]: 25.6%
inhibition [2]: 56.4%

CCC(CC)O[C@@H]1C=C(C(=O)O)C[C@H](NC(N)=O)[C@H]1NC(C)=O
remaining at 0.5 h (in vitro [8]): 99.1%
remaining at 1 h (in vitro [9]): 99.1%
Stabilty [10]: 100%
Stabilty [11]: 122.6%
bioavailability [12]: 8.8%
half-life at 24 h (in vivo): 2.07 h
AUC at 24 h [13]: 10300 ng·h/mL
F [14]: 100%
half-life at 1 h (in vitro [5]): > 2.42 h
AUC at 24 h [15]: 23200 ng·h/mL
Tmax [16]: 0.75 h
IC50 [17]: 169 nM
remaining at 10 min (in vitro [18]): 101%
IC50 [19]: 8700 nM
Cmax [20]: 3670 ng/mL
half-life at 1 h (in vitro [6]): > 2.42 h
remaining at 1 h (in vitro [21]): 85.5%
half-life [22]: 9.95 h
remaining at 1 h (in vitro [23]): 100%
IC50 ([24]; read-out: IC50): 254 nM
remaining at 1 h (in vitro [25]): 102%
half-life at 1 h (in vitro [7]): > 2.42 h

CCC(CC)O[C@@H]1C=C(C(=O)O)C[C@H](NC(=S)NC)[C@H]1NC(C)=O
IC50 ([24]; read-out: IC50): 18600 nM

CCC(CC)O[C@@H]1C=C(C(=O)O)C[C@H](NC(=O)NCCc2ccccc2)[C@H]1NC(C)=O
inhibition [1]: inactive
inhibition [2]: 17.7%

CCC(CC)O[C@@H]1C=C(C(=O)O)C[C@H](NC(=S)Nc2ccccc2)[C@H]1NC(C)=O
inhibition [1]: 16.6%
inhibition [2]: 47.1%

CCC(CC)O[C@@H]1C=C(C(=O)O)C[C@H](NC(=O)NCc2ccc(C#N)cc2)[C@H]1NC(C)=O
inhibition [1]: inactive
inhibition [2]: 32.5%

CCC(CC)O[C@@H]1C=C(C(=O)O)C[C@H](N)[C@H]1NC(C)=O [OSELTAMIVIR CARBOXYLATE]
half-life at 24 h (in vivo): 1.6 h
Tmax [26]: 4 h
F [14]: 100%
AUC at 24 h [15]: 8400 ng·h/mL
IC50 [17]: 41.7 nM
IC50 [19]: 2500 nM
Cmax [27]: 30 ng/mL
AUC at 24 h [28]: 300 ng·h/mL
IC50 [24]: 210 nM

CCC(CC)O[C@@H]1C=C(C(=O)O)C[C@H](NC(=O)Nc2cccc(Br)c2)[C@H]1NC(C)=O
IC50 ([24]; read-out: IC50): 16900 nM

CC(C)[N+](C)(CCOC(=O)C1c2ccccc2Oc2ccccc21)C(C)C.[Br-] [PROPANTHELINE BROMIDE]
Stabilty [10]: 100%
remaining at 10 min (in vitro [18]): 68.2%

CCC(CC)O[C@@H]1C=C(C(=O)O)C[C@H](NC(=S)NCc2cccc(F)c2)[C@H]1NC(C)=O
inhibition [1]: inactive
inhibition [2]: 28.1%

CCC(CC)O[C@@H]1C=C(C(=O)O)C[C@H](NC(=O)N(C)C)[C@H]1NC(C)=O
IC50 ([24]; read-out: IC50): 4830 nM

CO[C@@H]([C@@H]1OC(C(=O)O)=C[C@H](NC(=N)N)[C@H]1NC(C)=O)[C@H](O)CO
bioavailability [4]: 3.5%

CCC(CC)O[C@@H]1C=C(C(=O)O)C[C@H](NC(=O)Nc2cc(OC)c(OC)c(OC)c2)[C@H]1NC(C)=O
inhibition [1]: inactive
inhibition [2]: 16.4%

CCC(CC)O[C@@H]1C=C(C(=O)O)C[C@H](NC(=O)N(C(C)C)C(C)C)[C@H]1NC(C)=O
inhibition [1]: 32.3%
inhibition [2]: 63.1%

CCC(CC)O[C@@H]1C=C(C(=O)O)C[C@H](NC(=S)Nc2ccc(C)c(C)c2)[C@H]1NC(C)=O
inhibition [1]: 15.3%
inhibition [2]: 52.4%

CCC(CC)O[C@@H]1C=C(C(=O)O)C[C@H](NC(=O)NC(C)C)[C@H]1NC(C)=O
inhibition [1]: 8.3%
inhibition [2]: 32.3%

CCC(CC)O[C@@H]1C=C(C(=O)O)C[C@H](NC(=S)N(C(C)C)C(C)C)[C@H]1NC(C)=O
inhibition [1]: 20%
inhibition [2]: 80%

CCC(CC)O[C@@H]1C=C(C(=O)O)C[C@H](NC(=O)Nc2ccccc2)[C@H]1NC(C)=O
inhibition [1]: 17.6%
inhibition [2]: 32.6%

CCC(CC)O[C@@H]1C=C(C(=O)O)C[C@H](NC(=S)NC2CC2)[C@H]1NC(C)=O
inhibition [1]: 8.7%
inhibition [2]: 29.2%
